Structures are written as SMILES.

One series has as its system WT and Ts65Dn mice. The series is described as follows: Open-field locomotor assay (LMA), 30 min session. The format is in vivo, mouse. Particulars: WT and Ts65Dn mice. On the procedure:
Following baseline determinations and group assignments, WT and Ts65Dn mice received intraperitoneal (i.p.) injections once/day (08:00) for the two-week duration of the drug treatment regimen (FIG. 1). Drugs were dissolved in physiological saline. Two drops of Tween 80 were used to facilitate solution formation for flumazenil. Picrotoxin was initially made up at 50× concentration in 20% ethanol and then diluted down to a […] solution with 0.4% ETOH in saline. Doses of drugs were based on previous behavioral research in mice (1 mg/kg for PTX and 10 mg/kg for flumazenil). Injections were given in a volume of 10 ml/kg. A vehicle control was run along side the treatment groups (0.4% ETOH in saline).
FIG. 1 graphically depicts the protocol. After habituation to the animal facility, mice were tested for baseline behaviors in the open-field locomotor assay (LMA)(30 min session) and the novel object recognition assay. Primary experimental groups were divided by genotype (Ts65Dn mice and wild-type control littermates). These two groups were further divided into drug treatments (vehicle, PTX and flumazenil) with a targeted n-size of 8 mice/group (24 WT and 24 Ts65Dn mice total). The group assignments were made in a semi-random process due to constraints in animal availability (staggered shipping) and choice of initial treatment groups (e-mail documentation between Bilsky laboratory and Cypress Bioscience on file). Daily morning injections began on Day 1 and went through the morning of Day 14. On Days 7/8 and 14/15 (13:00) mice were tested in the behavioral assay. Mice were kept for an additional two weeks and re-tested on Days 21/22 and 28/29 to assess the duration of the drug treatment effect.
General levels of arousal, locomotor activity and anxiety were assessed using an automated open-field activity monitoring system (Coulbourn Instruments with TruScan software). The open field test that were run were fully automated assays that quantified many different aspects and patterns of movement, including total distance traveled, time spent moving, rearing, and various stereotypic patterns of activity. The software calculates the time spent in the middle portions of the open field versus the outer zones alongside the outside walls. These variables can be used as one measure of general anxiety levels.
Mice were placed into an open field (26 cm×26 cm) in a brightly lit room. Two sensor rings (x-y plane and a vertical z plane) generate an array of infrared beams that surround the chamber. The pattern of beam breaks was recorded and the data fed into a personal computer. The TruScan software interpreted the beam breaks to calculate the movement variables and patterns of activity, with a temporal resolution of 100 msec. A 30 minutes session was used for assessment of the mice on Day 0 (Baseline) and then on Days 1, 7, 14, 21 and 28. Data were exported into an Excel spreadsheet, graphed and analyzed using parametric and non-parametric statistics.

For series [1], the system named is Ts65Dn mice. The series is described as follows: Modified spontaneous alternation task (T-maze) in Ts65Dn mice (paper Examples 1 and 2). The format is in vivo, mouse. The following applies: 5 to 30 doses, 3 mg/kg in milk orally or 1 mg/kg i.p. On the procedure: (§1) Flumazenil may also be tested for its effects on declarative memory in the novel object recognition test and in a modified spontaneous alternation task. Wild-type and Ts65Dn mice may be administered flumazenil (3 mg/kg in milk via voluntary oral feeding or 1 mg/kg i.p.). The wild-type and Ts65Dn mice are administered from 5 to 30 doses of milk or milk-flumazenil (or saline or flumazenil solution i.p.). The mice are then subjected to two repetitions of novel object recognition testing or three daily T-maze sessions at the tail end of the treatment regimen. […] Comparison of treated and untreated Ts65Dn mice will provide controls for any possible arm bias in the spontaneous alternation task.
as §1, with “Bretazenil may” for “Flumazenil may”, “administered bretazenil” for “administered flumazenil”

For series [2] the following is noted: of the intravenous bioavailability; cited from earlier work.
Series [3] has as its system Ts65Dn mice. It is filed as in vivo, mouse. On the procedure:
(§2) A 4-week longitudinal crossover study is carried out following the method outlined by Fernandez et al., supra. Wild-type and Ts65Dn mice (3-4 months of age) are randomly assigned to groups receiving daily i.p. injections of saline or flumazenil (1.0 mg/kg), and are submitted to four weekly repetitions of object recognition testing, in which the animals are serially presented with four different object sets. At the 2-week midpoint of the experimental period, wild-type and Ts65Dn mice that have been receiving saline are randomly segregated into groups that either continue to receive daily saline injections or begin to receive daily injections of flumazenil. Conversely, wild-type and Ts65Dn mice that have been chronically administered flumazenil in the first 2 weeks of testing are switched onto a saline regimen. Alongside saline and flumazenil, bilobalide (i.p. 5.0 mg/kg) may be evaluated as a positive control. Bilobalide is a picrotoxin-like compound that may safely be administered for the whole 4-week experiment.
as §1
as §2, with “bretazenil” for “flumazenil”, “bretazenil.” for “flumazenil.”, “bretazenil,” for “flumazenil,”
as §1, with “Bretazenil may” for “Flumazenil may”, “administered bretazenil” for “administered flumazenil”

As to `CCOC(=O)c1ncn2c1CN(C)C(=O)c1cc(F)ccc1-2` [flumazenil, 8-fluoro-5,6-dihydro-5-methyl-6-oxo-4H-imidazo[1,5-a]benzodiazepine-3-carboxylic acid ethyl ester], the LMA vertical rearing entry in the series with WT and Ts65Dn mice (PTX during drug administration phases, flumazenil over the 4 week testing regimen) was “least effect”. Moreover, in the series on WT and Ts65Dn mice (across sessions, PTX 1 mg/kg, flumazenil 10 mg/kg i.p.), the “LMA marginal distance traveled” value is given as “very little habituation across sessions”. In the series with Ts65Dn mice [1], the spontaneous alternation entry is recorded as “normal levels of alternation”. Further, the oral bioavailability result in series [2] is reported as “approximately 20%”. Moreover, in the series on Ts65Dn mice [3] (4-week crossover, flumazenil or bretazenil 1.0 mg/kg i.p. for 2 weeks, bilobalide 5.0 mg/kg i.p. throughout), the object recognition performance result was “normalized object recognition performance”. The “discrimination indices in the object recognition task” value in the series with Ts65Dn mice [3] (5 to 30 doses, 3 mg/kg in milk orally or 1 mg/kg i.p.) was “on a par with those of wild-type mice”. In addition, the “novel object recognition testing, long term” value in the series with Ts65Dn mice [3] (up to at least 2 months after treatment, treated for at least about 15 days) is on record as “long-term improvement”.

Values taken from US20090270373A1, “TREATMENT OF DOWN SYNDROM WITH BENZODIAZEPINE RECEPTOR ANTAGONISTS” (Cypress Biosciences, Inc., priority 2008, published 2009).
